Experimental data from US8697692B2, “Pyrrolo [3,2-c] pyridine-4-one 2-indolinone protein kinase inhibitors” (Shanghai Hengrui Pharmaceutical Co., Ltd., priority 2006, dated 2014).

These compounds were tested against T1, recombinant human VEGF-R2 (Homo sapiens, UniProt P35968) (assay: VEGF-R2 Kinase Assay (ELISA)). Details: 10 μM ATP, 25° C. 30 minutes, read-out: IC50 (VEGFR/bio).
T1 construct: purchased Cell signaling technology #7787
Assay type: biochemical
Protocol: This assay is used to measure the in vitro kinase activity of recombinant human VEGF-R2 in an ELISA assay.
c. Stop Buffer: 50 mM EDTA, pH 8.0.
d. DELFIA® Europium-labeled Anti-mouse IgG (PerkinElmer Life Sciences #AD0124).
f. DELFIA® Streptavidin coated, 96-well, yellow plate (PerkinElmer Life Sciences #AAAND-0005).
k. HTScan™ Tyrosine Kinase Buffer (4×)
The following protocol was used:
1. Dilute test compound with DMSO to the desired final assay concentration.
2. Dilute 6 μM substrate peptide (Tyr87) 1:1 with dH2O, add 15 μl to every assay.
3. Immediately transfer VEGF-R2 enzyme from −80° C. to ice. Allow enzyme to thaw on ice.
4. Take 2.2 μg VEGF-R2 enzyme to the enzyme tube.
6. Transfer 0.75 ml of DTT/Kinase buffer to each enzyme tube to make 4× reaction cocktail. Add 7.5 μl 4× reaction cocktail to every assay.
7. Add 2 μl ATP (10 mM) to 498 μl dH2O, take 7.5 μl for every assay. Final Assay Conditions for a 30 μl Reaction
Incubate reaction tube at 25° C. for 30 minutes. 9. Add 30 μl/assay stop buffer (50 mM EDTA, pH 8.0) to stop the reaction. 10. Transfer 25 μl of each reaction and 75 μl dH2O/well to a 96-well streptavidin coated plate and incubate, with shaking at room temperature for 60 minutes. 11. Wash three times with 200 μl/well PBS-T buffer. Pat plate on paper towel to remove excess liquid. 12. […] Add 100 μl diluted primary antibody to each well. 13. Incubate, with shaking at room temperature for 60 minutes. 14. Wash as described above in step 11. 15. Dilute Europium labeled anti-mouse IgG 1:500 in PBS-T buffer with 1% BSA. Add 100 μl diluted antibody to each well. 16. Incubate, with shaking at room temperature for 30 minutes. 17. Wash five times with 200 μl/well PBS-T buffer. Pat plate on paper towel to remove excess liquid. 18. Add 100 μl/well DELFIA® Enhancement Solution. 19. Incubate, with shaking at room temperature for 5 minutes. 20. Detect 615 nm fluorescence emission with appropriate Time-Resolved Plate Reader.
X=the fluorescence value of the well contained test compound
The IC50 value can be derived from the IRs of compounds at different concentration gradients.

T1 sequence (P35968 20-1356): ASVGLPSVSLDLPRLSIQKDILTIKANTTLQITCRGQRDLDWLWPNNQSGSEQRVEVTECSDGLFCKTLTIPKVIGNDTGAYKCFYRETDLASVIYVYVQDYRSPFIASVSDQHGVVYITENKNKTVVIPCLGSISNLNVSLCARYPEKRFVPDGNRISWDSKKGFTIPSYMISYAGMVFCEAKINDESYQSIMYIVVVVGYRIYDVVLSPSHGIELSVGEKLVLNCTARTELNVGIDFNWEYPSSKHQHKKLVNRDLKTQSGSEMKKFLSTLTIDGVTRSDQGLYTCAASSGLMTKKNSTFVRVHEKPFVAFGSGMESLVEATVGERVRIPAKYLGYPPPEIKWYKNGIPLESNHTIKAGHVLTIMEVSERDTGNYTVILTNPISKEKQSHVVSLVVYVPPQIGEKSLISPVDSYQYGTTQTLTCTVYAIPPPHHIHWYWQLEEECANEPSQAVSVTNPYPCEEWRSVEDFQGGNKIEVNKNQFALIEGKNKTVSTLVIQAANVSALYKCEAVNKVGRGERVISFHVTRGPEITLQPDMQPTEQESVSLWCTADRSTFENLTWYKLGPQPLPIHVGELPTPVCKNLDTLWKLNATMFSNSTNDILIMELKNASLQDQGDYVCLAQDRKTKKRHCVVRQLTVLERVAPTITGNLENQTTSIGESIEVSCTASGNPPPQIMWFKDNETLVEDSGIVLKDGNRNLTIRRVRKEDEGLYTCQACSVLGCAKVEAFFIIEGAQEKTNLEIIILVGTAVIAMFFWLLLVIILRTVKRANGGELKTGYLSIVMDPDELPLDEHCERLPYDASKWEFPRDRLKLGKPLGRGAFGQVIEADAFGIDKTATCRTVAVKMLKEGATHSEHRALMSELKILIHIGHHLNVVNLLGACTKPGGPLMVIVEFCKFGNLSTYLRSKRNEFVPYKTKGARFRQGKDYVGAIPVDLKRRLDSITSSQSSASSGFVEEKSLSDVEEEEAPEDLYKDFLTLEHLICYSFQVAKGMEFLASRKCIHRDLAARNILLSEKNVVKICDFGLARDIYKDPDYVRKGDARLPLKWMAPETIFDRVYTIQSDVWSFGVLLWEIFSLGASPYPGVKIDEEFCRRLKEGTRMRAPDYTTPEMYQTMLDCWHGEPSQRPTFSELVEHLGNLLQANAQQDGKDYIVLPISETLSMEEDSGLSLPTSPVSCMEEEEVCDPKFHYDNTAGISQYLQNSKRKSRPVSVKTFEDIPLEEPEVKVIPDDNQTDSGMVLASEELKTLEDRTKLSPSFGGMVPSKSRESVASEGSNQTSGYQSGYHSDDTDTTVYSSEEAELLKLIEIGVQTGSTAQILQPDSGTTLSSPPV

In order of rising IC50:
1. CCN(CC)CCN1CCc2[nH]c(/C=C3\C(=O)Nc4cccc(-c5cccc(F)c5F)c43)c(C)c2C1=O [Example 39, 5-(2-diethylamino-ethyl)-2-[4-(2,3-difluoro-phenyl)-2-oxo-1,2-dihydro-indol-3-ylidenemethyl]-3-methyl-1,5,6,7-tetrahydro-pyrrolo[3,2-c]pyridin-4-one]  7.1 nM
2. CCN(CC)CCN1CCc2[nH]c(/C=C3\C(=O)Nc4cccc(-c5cccc(Cl)c5F)c43)c(C)c2C1=O [Example 36, 2-[4-(3-Chloro-2-fluoro-phenyl)-2-oxo-1,2-dihydro-indol-3-ylidenemethyl]-5-(2-diethylamino-ethyl)-3-methyl-1,5,6,7-tetrahydro-pyrrolo[3,2-c]pyridin-4-one]  10 nM
3. CCN(CC)CCN1CCc2[nH]c(/C=C3\C(=O)Nc4cccc(-c5ccc(Cl)cc5F)c43)c(C)c2C1=O [Example 34, 2-[4-(4-Chloro-2-fluoro-phenyl)-2-oxo-1,2-dihydro-indol-3-ylidenemethyl]-5-(2-diethylamino-ethyl)-3-methyl-1,5,6,7-tetrahydro-pyrrolo[3,2-c]pyridin-4-one]  11 nM
4. CCN(CC)CCN1CCc2[nH]c(/C=C3\C(=O)Nc4cccc(C5CCNCC5)c43)c(C)c2C1=O [Example 31, 5-(2-Diethylamino-ethyl)-3-methyl-2-(2-oxo-4-piperidin-4-yl-1,2-dihydro-indol-3-ylidenemethyl)-1,5,6,7-tetrahydro-pyrrolo[3,2-c]pyridin-4-one]  35 nM
5. Cc1c(/C=C2\C(=O)Nc3ccc(Cl)cc32)[nH]c2c1C(=O)N(CCN1CCOCC1)CC2 [Example 16, 2-(5-Chloro-2-oxo-1,2-dihydro-indol-3-ylidenemethyl)-3-methyl-5-(2-morpholin-4-yl-ethyl)-1,5,6,7-tetrahydro-pyrrolo[3,2-c]pyridin-4-one]  44 nM
6. Cc1c(/C=C2\C(=O)Nc3ccc(Br)cc32)[nH]c2c1C(=O)N(CCN1CCCC1)CC2 [Example 40, 2-(5-Bromo-2-oxo-1,2-dihydro-indol-3-ylidenemethyl)-3-methyl-5-(2-pyrrolidin-1-yl-ethyl)-1,5,6,7-tetrahydro-pyrrolo[3,2-c]pyridin-4-one]  47 nM
7. CCN(CC)CCN1CCc2[nH]c(/C=C3\C(=O)Nc4cccc(CCO)c43)c(C)c2C1=O [Example 37, 5-(2-Diethylamino-ethyl)-2-[4-(2-hydroxy-ethyl)-2-oxo-1,2-dihydro-indol-3-ylidenemethyl]-3-methyl-1,5,6,7-tetrahydro-pyrrolo[3,2-c]pyridin-4-one]  70 nM
8. CCN(CC)CCN1CCc2[nH]c(/C=C3\C(=O)Nc4cccc(Br)c43)c(C)c2C1=O [Example 30, 2-(4-Bromo-2-oxo-1,2-dihydro-indol-3-ylidenemethyl)-5-(2-diethylamino-ethyl)-3-methyl-1,5,6,7-tetrahydro-pyrrolo[3,2-c]pyridin-4-one]  94 nM
9. Cc1c(/C=C2\C(=O)Nc3ncnc(Nc4ccc(F)c(Cl)c4)c32)[nH]c2c1C(=O)N(CCN1CCOCC1)CC2 [Example 24, 4-(3-Chloro-4-fluoro-phenylamino)-5-[3-methyl-5-(2-morpholin-4-yl-ethyl)-4-oxo-4,5,6,7-tetrahydro-1H-pyrrolo[3,2-c]pyridine-2-ylmethylenene]-5,7-dihydro-pyrrolo[2,3-d]pyrimidin-6-one]  680 nM
10. Cc1c(/C=C2\C(=O)Nc3cccc(C4CCNCC4)c32)[nH]c2c1C(=O)N(CCN1CCOCC1)CC2 [Example 52, 3-Methyl-5-(2-morpholin-4-yl-ethyl)-2-(2-oxo-4-piperidin-4-yl-1,2-dihydro-indol-3-ylidenemethyl)-1,5,6,7-tetrahydro-pyrrolo[3,2-c]pyridin-4-one]  1270 nM
11. CCN(CC)CCN1CCc2[nH]c(/C=C3\C(=O)Nc4ncnc(Nc5ccc(F)c(Cl)c5)c43)c(C)c2C1=O [Example 12, 4-(3-Chlor O-4-fluoro-phenylamino)-5-[5-(2-diethylamino-ethyl)-3-methyl-4-oxo-4,5,6,7-tetrahydro-1H-pyrrolo[3,2-c]pyridine-2-ylmethylene]-5,7-dihydro-pyrrolo[2,3-d]pyrimidin-6-one]  1890 nM
